In PMC11697029 (Nature Communications, 2025):

molecular target: T1, RmlT (Listeria monocytogenes, UniProt Q8Y838); test: isothermal titration calorimetry; assay type: binding
T1 sequence (Q8Y838 1-623): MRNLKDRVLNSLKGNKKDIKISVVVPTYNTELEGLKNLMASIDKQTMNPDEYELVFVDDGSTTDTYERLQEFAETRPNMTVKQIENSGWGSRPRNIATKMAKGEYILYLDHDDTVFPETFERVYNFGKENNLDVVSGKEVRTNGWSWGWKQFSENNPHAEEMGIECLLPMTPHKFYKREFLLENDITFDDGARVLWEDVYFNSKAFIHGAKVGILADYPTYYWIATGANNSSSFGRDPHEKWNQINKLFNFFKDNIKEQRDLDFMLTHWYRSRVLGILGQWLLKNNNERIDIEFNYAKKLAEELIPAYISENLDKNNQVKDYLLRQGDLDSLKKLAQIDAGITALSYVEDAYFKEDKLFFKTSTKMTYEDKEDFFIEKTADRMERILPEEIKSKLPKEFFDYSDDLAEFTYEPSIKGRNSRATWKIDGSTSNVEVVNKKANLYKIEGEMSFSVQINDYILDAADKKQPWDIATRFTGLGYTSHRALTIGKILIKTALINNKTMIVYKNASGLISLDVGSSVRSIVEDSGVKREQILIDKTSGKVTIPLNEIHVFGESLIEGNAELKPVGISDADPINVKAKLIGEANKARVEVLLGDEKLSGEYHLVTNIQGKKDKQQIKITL

| Kd [µM] | SMILES |
| --- | --- |
| ~10 | Cc1cn([C@H]2C[C@H](O)[C@@H](COP(=O)(O)OP(=O)(O)O[C@H]3O[C@H](CO)[C@@H](O)[C@H](O)[C@H]3O)O2)c(=O)[nH]c1=O [TDP-glucose] |
| ~13 | Cc1cn([C@H]2C[C@H](O)[C@@H](COP(=O)(O)OP(=O)(O)O[C@H]3O[C@@H](C)[C@H](O)[C@@H](O)[C@H]3O)O2)c(=O)[nH]c1=O [TDP-rhamnose] |
| ~50 | Cc1cn([C@H]2C[C@H](O)[C@@H](COP(=O)(O)OP(=O)(O)O)O2)c(=O)[nH]c1=O [TDP] |
